Data taken from patent US20130065818A1, “Arylamide Compounds And Compositions And Uses Thereof” (POLYMEDIX, priority 2006, published 2013).
In brackets after ≈: the same amount, converted by molar mass. Read-outs that look alike come from different tables or passages of the source.

Experiments:
[1] = tested on: Streptococcus viridans group; experiment: MIC, 25 ocular isolates, broth microdilution (Example 8); type: cell-based
Experimental: Mueller-Hinton Broth supplemented with 2% lysed horse blood in tubes was inoculated with 25 ocular isolates of Streptococcus pneumoniae, Streptococcus viridans group, and Moraxella species (including Moraxella catarrhalis) plus two controls (Staphylococcus aureus and E. coli) and incubated at 37° C. overnight. Additionally, Mueller-Hinton Broth in tubes was inoculated with two controls (Staphylococcus aureus and E. coli) and incubated at 37° C. overnight on a shaker set at 250 rpm.
(§1) On the day of testing, a 640 μg/ml (1280 μg/ml for Serratia marcescens and Pseudomonas aeruginosa) concentration was prepared from a 1% stock solution in 0.01% acetic acid, 0.2% BSA in polypropylene tubes.
(§2) Serial doubling dilutions in 0.01% acetic acid, 0.2% BSA in 96 well polypropylene plates, which are used as reservoirs for the inoculation of the test plates, were carried out to obtain serial dilutions of test agents at 10 times the required test concentrations: 640, 320, 160, 80, 40, 20, 10, 5, 2.5, 1.25, and 0.625 μg/ml (1280, 640, 320, 160, 80, 40, 20, 10, 5, 2.5, and 1.25 μg/ml for Serratia marcescens and Pseudomonas aeruginosa).
(§3) Ten μl of diluted 10×test agents was added to each well of one row of the 96 well polypropylene plates from column 2 to column 12 (column 1 is a control for bacteria alone, with no peptide). Test agent concentrations in columns 2-12 were as follows: 64, 32, 16, 8, 4, 2, 1, 0.5, 0.25, 0.125, and 0.0625 μg/ml (128, 64, 32, 16, 8, 4, 2, 1, 0.5, 0.25, and 0.125 μg/ml for Serratia marcescens and Pseudomonas aeruginosa). The same peptide was in each of the 8 rows. One plate contained dilutions of one test agent and 8 bacterial isolates.
On the day of testing, the overnight bacterial broth cultures of Streptococcus pneumoniae, Streptococcus viridans and Moraxella species (including Moraxella catarrhalis) plus two controls (Staphylococcus aureus and E. coli) were diluted in 5 ml of trypticase soy broth to yield turbidity equal to a 0.5 McFarland standard. The final inoculum for MIC testing for Streptococcus pneumoniae, Streptococcus viridans and Moraxella species (including Moraxella catarrhalis) was achieved by placing 0.1 ml of the turbidity adjusted sample to 5 ml of Mueller-Hinton broth containing 2% lysed horse red blood cells.
(§4) Ninety μl of the bacterial suspensions was dispensed in each well from column 1 to column 12. Each bacterial isolate was placed in one row of a 96 well polypropylene plate containing the test agents. The plates were placed on shaker at 15 minutes at room temperature, and then incubated at 37° C. overnight. MICs were determined visually as the lowest concentration of drug that inhibits visible bacterial growth.

Haemophilus influenzae = experiment: as above; type: cell-based
Experimental: HTM (Haemophilus Test Medium) in tubes was inoculated with 25 ocular isolates of Haemophilus influenzae plus two controls (Staphylococcus aureus and E. coli) and incubated at 37° C. overnight. Additionally, Mueller-Hinton Broth in tubes was inoculated with two controls (Staphylococcus aureus and E. coli) and incubated at 37° C. overnight on a shaker set at 250 rpm.
as §1, §2, §3
On the day of testing, the overnight bacterial broth cultures of Haemophilus species was diluted in 5 ml of trypticase soy broth to yield turbidity equal to a 0.5 McFarland standard. The final inoculum for MIC testing for Haemophilus species was achieved by placing 0.1 ml of the turbidity adjusted sample to 5 ml of HTM medium.
as §4

[2] = Haemophilus influenzae, n=25 isolates, >64 replaced with 128

Q: How did the MIC50 ([1]; 25 isolates, Row 13) turn out when `N=C(N)NCCCCC(=O)Nc1cc(C(F)(F)F)cc(NC(=O)c2cc(C(=O)Nc3cc(C(F)(F)F)cc(NC(=O)CCCCNC(=N)N)c3O[C@@H]3CCNC3)ncn2)c1O[C@@H]1CCNC1` [Oligomer 4] was run?
A: 4 µg/mL (≈ 4.27 µM)

Q: And the MIC90 ([1]; 25 isolates, Row 22, >64 was Replaced with 128)?
A: 8 µg/mL (≈ 8.54 µM)

Q: What about the “Range of MICs” value ([1]; 25 isolates, Summary of Results, >64 was Replaced with 128) of the same molecule?
A: 1 to 32 µg/mL

Q: And the MIC ([1]; Streptococcus viridans, 25 ocular isolates, Mueller-Hinton broth with 2% lysed horse red blood cells, read-out: Median MIC)?
A: 4 µg/mL (≈ 4.27 µM)

Q: What about the MIC ([1]; Streptococcus viridans, isolate 1—K1684, read-out: MIC) of the same molecule?
A: 2 µg/mL (≈ 2.13 µM)

Q: What about the MIC ([1]; Streptococcus viridans, isolate 2—K1680, read-out: MIC) of the same molecule?
A: 4 µg/mL (≈ 4.27 µM)

Q: And the MIC ([1]; Streptococcus viridans, isolate 3—E546, read-out: MIC)?
A: 1 µg/mL (≈ 1.07 µM)

Q: And the MIC ([1]; Streptococcus viridans, isolate 4—E272, read-out: MIC)?
A: 2 µg/mL (≈ 2.13 µM)

Q: And the MIC ([1]; Streptococcus viridans, isolate 5—E506, read-out: MIC)?
A: 16 µg/mL (≈ 17.1 µM)

Q: What about the MIC ([1]; Streptococcus viridans, isolate 6—E496, read-out: MIC) of the same molecule?
A: 1 µg/mL (≈ 1.07 µM)

Q: And the MIC ([1]; Streptococcus viridans, isolate 7—E456, read-out: MIC)?
A: 4 µg/mL (≈ 4.27 µM)

Q: And the MIC ([1]; Streptococcus viridans, isolate 8—E432, read-out: MIC)?
A: 4 µg/mL (≈ 4.27 µM)

Q: And the MIC ([1]; Streptococcus viridans, isolate 9—E423, read-out: MIC)?
A: 4 µg/mL (≈ 4.27 µM)

Q: And the MIC ([1]; Streptococcus viridans, isolate 10—E418, read-out: MIC)?
A: 8 µg/mL (≈ 8.54 µM)

Q: What about the MIC ([1]; Streptococcus viridans, isolate 11—E412, read-out: MIC) of the same molecule?
A: 2 µg/mL (≈ 2.13 µM)

Q: What about the MIC ([1]; Streptococcus viridans, isolate 12—E409, read-out: MIC) of the same molecule?
A: 8 µg/mL (≈ 8.54 µM)

Q: And the MIC ([1]; Streptococcus viridans, isolate 13—E405, read-out: MIC)?
A: 4 µg/mL (≈ 4.27 µM)

Q: And the MIC ([1]; Streptococcus viridans, isolate 14—E404, read-out: MIC)?
A: 32 µg/mL (≈ 34.2 µM)

Q: What about the MIC ([1]; Streptococcus viridans, isolate 15—E396, read-out: MIC) of the same molecule?
A: 16 µg/mL (≈ 17.1 µM)

Q: And the MIC ([1]; Streptococcus viridans, isolate 16—E262, read-out: MIC)?
A: 1 µg/mL (≈ 1.07 µM)

Q: And the MIC ([1]; Streptococcus viridans, isolate 17—E362, read-out: MIC)?
A: 4 µg/mL (≈ 4.27 µM)

Q: And the MIC ([1]; Streptococcus viridans, isolate 18—E359, read-out: MIC)?
A: 4 µg/mL (≈ 4.27 µM)

Q: And the MIC ([1]; Streptococcus viridans, isolate 19—E348, read-out: MIC)?
A: 8 µg/mL (≈ 8.54 µM)

Q: What about the MIC ([1]; Streptococcus viridans, isolate 20—E344, read-out: MIC) of the same molecule?
A: 4 µg/mL (≈ 4.27 µM)

Q: What about the MIC ([1]; Streptococcus viridans, isolate 21—E308, read-out: MIC) of the same molecule?
A: 4 µg/mL (≈ 4.27 µM)

Q: What about the MIC ([1]; Streptococcus viridans, isolate 22—E294, read-out: MIC) of the same molecule?
A: 4 µg/mL (≈ 4.27 µM)

Q: What about the MIC ([1]; Streptococcus viridans, isolate 23—E292, read-out: MIC) of the same molecule?
A: 4 µg/mL (≈ 4.27 µM)

Q: And the MIC ([1]; Streptococcus viridans, isolate 24—E285, read-out: MIC)?
A: 4 µg/mL (≈ 4.27 µM)

Q: And the MIC ([1]; Streptococcus viridans, isolate 25—E265, read-out: MIC)?
A: 1 µg/mL (≈ 1.07 µM)

Q: And the MIC ([1]; Streptococcus viridans, n=25 per group, read-out: Median MIC)?
A: 4 µg/mL (≈ 4.27 µM)

Q: What about the MIC90 ([1]; Streptococcus viridans, 25 isolates, Summary of Results, >64 was Replaced with 128, read-out: MIC90) of the same molecule?
A: 8 µg/mL (≈ 8.54 µM)

Q: And the MIC50 ([1]; Streptococcus viridans, 25 isolates, Summary of Results, read-out: MIC50)?
A: 4 µg/mL (≈ 4.27 µM)

Q: And the MIC ([1]; Streptococcus viridans, 25 isolates, Summary of Results, read-out: Median MIC)?
A: 4 µg/mL (≈ 4.27 µM)

Q: What about the MIC50 ([1]; n=25 per group) of the same molecule?
A: 4 µg/mL (≈ 4.27 µM)

Q: And the MIC90 ([1]; n=25 per group)?
A: 8 µg/mL (≈ 8.54 µM)

Q: And the “Range of MICs” value ([1]; n=25 per group)?
A: 1 to 32 µg/mL

Q: And the MIC (Haemophilus influenzae; Haemophilus influenzae, 25 ocular isolates, HTM medium, read-out: Median MIC)?
A: 8 µg/mL (≈ 8.54 µM)

Q: What about the MIC (Haemophilus influenzae; Haemophilus influenzae, isolate 1 B1359, read-out: MIC) of the same molecule?
A: 8 µg/mL (≈ 8.54 µM)

Q: And the MIC (Haemophilus influenzae; Haemophilus influenzae, isolate 2 B1346, read-out: MIC)?
A: 8 µg/mL (≈ 8.54 µM)

Q: And the MIC (Haemophilus influenzae; Haemophilus influenzae, isolate 3 B1345, read-out: MIC)?
A: 8 µg/mL (≈ 8.54 µM)

Q: And the MIC (Haemophilus influenzae; Haemophilus influenzae, isolate 4 B1343, read-out: MIC)?
A: 8 µg/mL (≈ 8.54 µM)

Q: What about the MIC (Haemophilus influenzae; Haemophilus influenzae, isolate 5 B1338, read-out: MIC) of the same molecule?
A: 4 µg/mL (≈ 4.27 µM)

Q: And the MIC (Haemophilus influenzae; Haemophilus influenzae, isolate 6 B1332, read-out: MIC)?
A: 8 µg/mL (≈ 8.54 µM)

Q: What about the MIC (Haemophilus influenzae; Haemophilus influenzae, isolate 7 B1331, read-out: MIC) of the same molecule?
A: 8 µg/mL (≈ 8.54 µM)

Q: What about the MIC (Haemophilus influenzae; Haemophilus influenzae, isolate 8 B1330, read-out: MIC) of the same molecule?
A: 8 µg/mL (≈ 8.54 µM)

Q: And the MIC (Haemophilus influenzae; Haemophilus influenzae, isolate 9 B1379, read-out: MIC)?
A: 16 µg/mL (≈ 17.1 µM)

Q: What about the MIC (Haemophilus influenzae; Haemophilus influenzae, isolate 10 B1378, read-out: MIC) of the same molecule?
A: 8 µg/mL (≈ 8.54 µM)

Q: What about the MIC (Haemophilus influenzae; Haemophilus influenzae, isolate 11 B1313, read-out: MIC) of the same molecule?
A: 4 µg/mL (≈ 4.27 µM)

Q: And the MIC (Haemophilus influenzae; Haemophilus influenzae, isolate 12 B1477, read-out: MIC)?
A: 8 µg/mL (≈ 8.54 µM)

Q: What about the MIC (Haemophilus influenzae; Haemophilus influenzae, isolate 13 B1286, read-out: MIC) of the same molecule?
A: 8 µg/mL (≈ 8.54 µM)

Q: And the MIC (Haemophilus influenzae; Haemophilus influenzae, isolate 14 B1282, read-out: MIC)?
A: 32 µg/mL (≈ 34.2 µM)

Q: And the MIC (Haemophilus influenzae; Haemophilus influenzae, isolate 15 B1291, read-out: MIC)?
A: 8 µg/mL (≈ 8.54 µM)

Q: What about the MIC (Haemophilus influenzae; Haemophilus influenzae, isolate 16 B1280, read-out: MIC) of the same molecule?
A: 8 µg/mL (≈ 8.54 µM)

Q: What about the MIC (Haemophilus influenzae; Haemophilus influenzae, isolate 17 B1279, read-out: MIC) of the same molecule?
A: 16 µg/mL (≈ 17.1 µM)

Q: And the MIC (Haemophilus influenzae; Haemophilus influenzae, isolate 18 B1260, read-out: MIC)?
A: 8 µg/mL (≈ 8.54 µM)

Q: And the MIC (Haemophilus influenzae; Haemophilus influenzae, isolate 19 B1238, read-out: MIC)?
A: 2 µg/mL (≈ 2.13 µM)

Q: What about the MIC (Haemophilus influenzae; Haemophilus influenzae, isolate 20 B1209, read-out: MIC) of the same molecule?
A: 4 µg/mL (≈ 4.27 µM)

Q: What about the MIC (Haemophilus influenzae; Haemophilus influenzae, isolate 21 B1249, read-out: MIC) of the same molecule?
A: 4 µg/mL (≈ 4.27 µM)

Q: And the MIC (Haemophilus influenzae; Haemophilus influenzae, isolate 22 B1248, read-out: MIC)?
A: 8 µg/mL (≈ 8.54 µM)

Q: And the MIC (Haemophilus influenzae; Haemophilus influenzae, isolate 23 B1244, read-out: MIC)?
A: 8 µg/mL (≈ 8.54 µM)

Q: And the MIC (Haemophilus influenzae; Haemophilus influenzae, isolate 24 B1419, read-out: MIC)?
A: 4 µg/mL (≈ 4.27 µM)

Q: What about the MIC (Haemophilus influenzae; Haemophilus influenzae, isolate 25 B1222, read-out: MIC) of the same molecule?
A: 8 µg/mL (≈ 8.54 µM)

Q: And the MIC50 (Haemophilus influenzae; [2])?
A: 8 µg/mL (≈ 8.54 µM)

Q: And the MIC90 (Haemophilus influenzae; [2])?
A: 8 µg/mL (≈ 8.54 µM)

Q: What about the MIC (Haemophilus influenzae; Haemophilus influenzae, n=25 isolates, >64 replaced with 128, read-out: Median MIC) of the same molecule?
A: 8 µg/mL (≈ 8.54 µM)

Q: What about the “Range of MICs” value (Haemophilus influenzae; n=25 isolates, >64 replaced with 128) of the same molecule?
A: 2 to 32 µg/mL
